Measured values as given in patent publication US12559504B2, “Benzotriazole derivative” (UBE CORPORATION, priority 2019, dated 2026).

Legend:
[1] = Metabolism test using human liver microsome fractions; type: in vitro ADME; details: human liver microsomes, test compound 10 μmol/L, NADPH and UDP-glucuronic acid, 37° C.
Method: A reaction composition solution (comprising NADPH Regenerating System, Solution A (manufactured by Corning Inc., REF. 451220) (50 μL), NADPH Regenerating System, Solution B (manufactured by Corning Inc., REF. 451200) (10 μL), 250 mM UDP-glucuronic acid (40 μL), UGT Reaction Mix Solution B (manufactured by Corning Inc., REF. 451320) (200 μL), and distilled water (640 μL)) in which human liver microsomes (manufactured by Xenotech, Cat. No. H610) or monkey liver microsomes (manufactured by Xenotech, Cat. No. P2000) (corresponding to 1 mg of protein) were suspended was prepared. After the solution was incubated at 37° C. for 5 minutes, each test compound dissolved into DMSO (manufactured by FUJIFILM Wako Pure Chemical Corporation, Code No. 043-07216) was added to the solution so that the final concentration was set to be 10 μmol/L, and a reaction was initiated. After 0, 5, 10, 15, 20, and 30 minute(s) from the initiation of the metabolism reaction, 100 μL of the reaction solution was taken out of the reaction system, and added to 200 μL of acetonitrile to stop the reaction. After the reaction was completed, the reaction solution was subjected to a work-up such as deproteinization, and then subjected to an UV-HPLC analysis to carry out the following analysis.
The peak area of each test compound was calculated by LabSolution software (Shimadzu Corporation), and the residual ratio (%) at each culture time of test material was calculated by the following equation. Residual ratio (%)=Peak area at each culture time[…]Peak area at 0 (initial time)
Next, the residual amount (nmol/mg/mL) at each culture time of test material was calculated by the following equation. Residual amount (nmol/mg/mL)=Initial concentration of reaction solution (10 nmol/mg/mL)×residual ratio÷100
Finally, a graph in which the reaction time was plotted at horizontal axis and the residual amount was plotted at longitudinal axis was prepared on Excel, and the inclination was calculated as the elimination rate (pmol/min/mg-P) within the time range in which the graph was deemed linear.

[2] = target: T1, GST fusion human Keap1 (amino acid residue: 325-624) protein (Homo sapiens, UniProt Q14145); test: Keap1-Nrf2 binding inhibition test (fluorescence polarization); details: compound concentration of 100 nM; read-out: inhibition rate
T1 construct: GST fusion human Keap1 (amino acid residue: 325-624) protein; purchased Protein tech Ag0779
Method: The inhibitory activity of each test compound on the binding between Nrf2 and Keap1 was measured by the fluorescence polarization method. A solution consisting of 20 mM tris-hydrochloride pH7.5 (NIPPON GENE CO., LTD., REF: 318-90225), 150 mM NaCl [FUJIFILM Wako Pure Chemical. Corporation, REF: 191-01665], 0.05% Tween 20 (BioRAD, REF: 161-0781), and 5 mM DTT (FUJIFILM Wako Pure Chemical Corporation, REF: 049-08972) was used as a buffer solution. To a test compound solution (70 μL) adjusted to each concentration with 10% DMSO (FUJIFILM Wako Pure Chemical Corporation, REF: 043-07216) was added a buffer solution (350 μL) comprising 6 nM FITC-labeled Nrf2 peptide (FITC-Ahx-LDEETGEFL-NH2, Invitrogen) and 0.2 mg/mL of BSA (FUJIFILM Wako Pure Chemical Corporation, REF: 017-22231). Each 120 μL of the resulting mixture was dispensed into a black 96 well plate, and a buffer solution (80 μL) comprising 2.5 nM GST fusion human Keap1 (amino acid residue: 325-624) protein (Protein tech, REF: Ag0779) was added thereto. A Keap1-free buffer solution was added to some wells to prepare negative controls. Meanwhile, compound-free wells were used as positive controls. The plate was incubated at room temperature for 30 minutes, and each fluorescence polarization at excitation wavelength of 482 nm and fluorescence wavelength of 530 nm was measured by using a plate reader Clariostar (BMG Labtech). The fluorescence polarization of the negative control was set to be 100% inhibition, fluorescence polarization of the positive control was set to be 0% inhibition, and the inhibition rate of each test compound at 100 nM was calculated by using the following equation. Inhibition rate (%)=100−((Fluorescence polarization when test compound was added−Fluorescence polarization of negative control)/(Fluorescence polarization of positive control−Fluorescence polarization of negative control))×100

NQO1 = NQO1 expression induction test in mouse kidney (single administration); type: in vivo; details: BALB/c mouse kidney, 6 hours after administration, ratio to control group
Method: Each test compound solution for administration was prepared by dissolving or suspending each test compound into a 0.5 w/v % aqueous solution of methylcellulose (0.5% MC) (manufactured by Wako Pure Chemical Industries, Ltd.).
Each prepared test compound was orally administered to a BALB/c mouse (female, provided by Charles River Laboratories Japan, Inc.). Non-treated group was used as a control group. After 6 hours from the administration, each mouse was anesthetized with isoflurane, and euthanized with bloodletting by incising a lower aorta. Immediately, the left kidney was excised, cut into small pieces, and then the cut kidney pieces were transferred to RNA later (Thermo Fisher Scientific).
Then, mRNA was extracted from the collected kidney pieces by using NucleoSpin (registered trademark) RNA Kit (Takara Bio Inc.), each concentration was quantified by FlexStation3 (Molecular Devices), and then the concentration was adjusted to a constant concentration. A reverse transcription synthesis of cDNA was carried out from the mRNA with the constant concentration by using PrimeScript™ RT reagent Kit with gDNA Eraser and PCR Thermal Cycler (Takara Bio Inc.). Then, in addition to the resulting cDNA, SYBR (registered trademark) Premix Ex Taq™ II and NQO1, GAPDH primer (Takara Bio Inc.) were used to carry out Real-time PCR by PCR Thermal Cycler Dice Real time (Takara Bio Inc.), and the NQO1 expression was quantified by using the GAPDH expression as the reference.
In order to evaluate the NQO1 expression induction in each group, the NQO1 expression induction ratio was calculated by using the following equation. (NQO1 expression induction ratio)=(Average NQO1 expression in test compound administered group)[…](Average NQO1 expression in control group)

T1 sequence (Q14145 325-624): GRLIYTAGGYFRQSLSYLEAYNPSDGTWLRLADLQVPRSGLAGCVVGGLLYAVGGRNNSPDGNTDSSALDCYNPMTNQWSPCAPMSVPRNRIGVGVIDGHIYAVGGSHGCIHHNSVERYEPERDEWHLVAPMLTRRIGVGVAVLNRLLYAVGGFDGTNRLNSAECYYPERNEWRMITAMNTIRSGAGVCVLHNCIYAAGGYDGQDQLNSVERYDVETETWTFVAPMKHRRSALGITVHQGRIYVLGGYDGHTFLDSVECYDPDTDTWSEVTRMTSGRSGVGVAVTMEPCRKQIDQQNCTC

| SMILES | Human metabolic rate [1] | other results |
| --- | --- | --- |
| CC[C@@H]1CN(Cc2cc(C(c3ccc4c(nnn4C)c3C)C(C)(C)C(=O)O)ccc2C)Cc2cc3c(cc2O1)OC(F)(F)O3 (single isomer, unassigned) [Example 30] | E (metabolic rate≥250 pmol/min/mg protein) | – |
| CC[C@@H]1CN(Cc2cc(C(c3ccc4c(nnn4C)c3C)C(C)(C)C(=O)O)ccc2C)Cc2ccc3c(c2O1)CCC3 (single isomer, unassigned) [Example 35] | B (100≤metabolic rate<150 pmol/min/mg protein) | inhibition at 0.1 µM [2]: ≥ 50%; fold induction at 10 mg/kg (NQO1; Mus musculus, po, 6 h): > 6 |
| CC[C@@H]1CN(Cc2cc(C(c3ccc4c(nnn4C)c3C)C(C)(C)C(=O)O)ccc2C)Cc2cc3c(cc2O1)CCCC3 (single isomer, unassigned) [Example 34] | C (150≤metabolic rate<200 pmol/min/mg protein) | – |
| CC[C@@H]1CN(Cc2cc(C(c3ccc4c(nnn4C)c3C)C(C)(C)C(=O)O)ccc2C)Cc2c(ccc3cn[nH]c23)O1 (single isomer, unassigned) [Example 43] | A (metabolic rate<100 pmol/min/mg protein) | inhibition at 0.1 µM [2]: ≥ 50%; fold induction at 10 mg/kg (NQO1; Mus musculus, po, 6 h): > 6 |
| CC[C@H]1CN(Cc2cc(C(c3ccc4c(nnn4C)c3C)C(C)(C)C(=O)O)ccc2C)Cc2ncc3ccccc3c2O1 (single isomer, unassigned) [Example 90] | C (150≤metabolic rate<200 pmol/min/mg protein) | – |
| CC[C@H]1CN(Cc2cc(C(c3ccc4c(nnn4C)c3C)C(C)(C)C(=O)O)ccc2C)Cc2ncc3ccccc3c2O1 (single isomer, unassigned) [Example 89-(b)] | E (metabolic rate≥250 pmol/min/mg protein) | inhibition at 0.1 µM [2]: ≥ 50%; fold induction at 10 mg/kg (NQO1; Mus musculus, po, 6 h): 3 to 6 |
| CC[C@@H]1CN(Cc2cc(C(c3ccc4c(nnn4C)c3C)C(C)(C)C(=O)O)ccc2C)Cc2ccc3c(c2O1)CCC3 (single isomer, unassigned) [Example 36] | C (150≤metabolic rate<200 pmol/min/mg protein) | – |
| CC[C@@H]1CN(Cc2cc(C(c3ccc4c(nnn4C)c3C)C(C)(C)C(=O)O)ccc2C)Cc2ccccc2O1 (single isomer, unassigned) [Example C2, reference compound] | E (metabolic rate≥250 pmol/min/mg protein) | – |
| CCCC1CN(Cc2cc(C(c3ccc4c(nnn4C)c3C)C(C)(C)C(=O)O)ccc2C)Cc2cc3ncccc3cc2O1 (centres unmarked) [Example 77-(b), 3-(1,4-dimethyl-1H-benzo[d][1,2,3]triazol-5-yl)-2,2-dimethyl-3-(4-methyl-3-((2-propyl-2,3-dihydro-[1,4]oxazepino[7,6-g]quinolin-4 (5H)-yl)methyl)phenyl)propanoic Acid] | B (100≤metabolic rate<150 pmol/min/mg protein) | inhibition at 0.1 µM [2]: ≥ 50%; fold induction at 20 mg/kg (NQO1; Mus musculus, po, 6 h, Dose 20 mg/kg): > 6 |
| CC[C@@H]1CN(Cc2cc(C(c3ccc4c(nnn4C)c3C)C(C)(C)C(=O)O)ccc2C)Cc2cc3c(cc2O1)CCC3 (single isomer, unassigned) [Example 32] | D (200≤metabolic rate<250 pmol/min/me protein) | – |
| CC[C@@H]1CN(Cc2cc(C(c3ccc4c(nnn4C)c3C)C(C)(C)C(=O)O)ccc2C)Cc2cc3cccnc3cc2O1 (single isomer, unassigned) [Example 40] | E (metabolic rate≥250 pmol/min/mg protein) | – |
| CC[C@@H]1CN(Cc2cc(C(c3ccc4c(nnn4C)c3C)C(C)(C)C(=O)O)ccc2C)Cc2ncc3ccccc3c2O1 (single isomer, unassigned) [Example 46] | E (metabolic rate≥250 pmol/min/mg protein) | – |
| CC[C@@H]1CN(Cc2cc(C(c3ccc4c(nnn4C)c3C)C(C)(C)C(=O)O)ccc2C)Cc2cc3ncccc3cc2O1 (single isomer, unassigned) [Example 42] | E (metabolic rate≥250 pmol/min/mg protein) | – |
| CC[C@@H]1CN(Cc2cc(C(c3ccc4c(nnn4C)c3C)C(C)(C)C(=O)O)ccc2C)Cc2c(ccc3cn[nH]c23)O1 (single isomer, unassigned) [Example 44] | E (metabolic rate≥250 pmol/min/mg protein) | – |
| CC[C@@H]1CN(Cc2cc(C(c3ccc4c(nnn4C)c3C)C3(C(=O)O)CCC3)ccc2C)Cc2cc3ncccc3cc2O1 (single isomer, unassigned) [Example 88] | E (metabolic rate≥250 pmol/min/mg protein) | – |
| CC[C@@H]1CN(Cc2cc(C(c3ccc4c(nnn4C)c3C)C(C)(C)C(=O)O)ccc2C)Cc2nc3ccccc3cc2O1 (single isomer, unassigned) [Example 38] | E (metabolic rate≥250 pmol/min/mg protein) | – |
| Cc1ccc(C(c2ccc3c(nnn3C)c2C)C(C)(C)C(=O)O)cc1CN1Cc2cc3ncccc3cc2OC2(CC2)C1 (single isomer, unassigned) [Example 86, 3-(3-((3′H-spiro[cyclopropane-1,2′-[1,4]oxazepino[7,6-g]quinoline]-4′ (5′H)-yl)methyl)-4-methylphenyl)-3-(1,4-dimethyl-1H-benzo[d][1,2,3]triazol-5-yl)-2,2-dimethylpropanoic Acid] | E (metabolic rate≥250 pmol/min/mg protein) | – |
| CC[C@H]1CN(Cc2cc(C(c3ccc4c(nnn4C)c3C)C(C)(C)C(=O)O)ccc2C)Cc2cc3ncccc3cc2O1 (single isomer, unassigned; diastereomer 1) [Example 57-(c)] | C (150≤metabolic rate<200 pmol/min/mg protein) | inhibition at 0.1 µM [2]: ≥ 50% |
| CCCC1CN(Cc2cc(C(c3ccc4c(nnn4C)c3C)C(C)(C)C(=O)O)ccc2C)Cc2cc3ncccc3cc2O1 (centres unmarked) [Example 78-(b), 3-(1,4-dimethyl-1H-benzo[d][1,2,3]triazol-5-yl)-2,2-dimethyl-3-(4-methyl-3-((2-propyl-2,3-dihydro-[1,4]oxazepino[7,6-g]quinolin-4 (5H)-yl)methyl)phenyl)propanoic Acid] | B (100≤metabolic rate<150 pmol/min/mg protein) | NQO1 expression induction activity (NQO1; Dose 20 mg/kg, oral, 20 mg/kg): B (3<NQO1 expression induction ratio≤6) |
